Measured values from patent US10745402B2, “Morphinan derivatives and use thereof” (PURDUE PHARMA L.P., priority 2017, dated 2020).

How the values were obtained:
κ-opioid receptor [1] = molecular target: T1, κ-opioid receptor (Homo sapiens, UniProt P41145); experiment: β-Arr2 activity response in U2OS cells, κ-opioid receptor; type: cell-based; design: expressed in transfected cells; host or cells: U2OS (U-2 OS)
Method: (§1) TABLE 4 provides activity response of certain Compounds of the present disclosure to the μ- and κ-opioid receptors that was determined in the above-described functional assays using U2OS cells.

Sprague-Dawley rats [2] = experiment: Hot plate analgesia in rats (observation of sedation); type: in vivo, rat
Method: To assess the actions of a Compound of the present disclosure for the treatment or prevention of acute pain, the rat hot plate test can also be used. Rats are tested using a hot plate apparatus consisting of a clear plexiglass cylinder with a heated metal floor maintained at a temperature of 48-52° C. (Model 7280, commercially available from Ugo Basile of Italy). […] Hot plate latencies are measured immediately before (pre-treatment) and 1, 3, and 5 hours following administration of a Compound of the present disclosure. The nocifensive behavioral endpoint is defined as any of the following: 1) paw withdrawal, either as a sustained lift or with shaking or licking; 2) alternating foot lifting; 3) escape or attempted escape from the testing device; or 4) vocalization. Data are expressed as response latency(s) and the percentage of the maximal possible effect is calculated as described above for the tail flick test. […]
Male, Sprague-Dawley rats (Harlan, weight 211-246 g; n=5-10/group) were baselined (“BL”) for latency on a hot plate which was set to 52° C. the day prior to dosing. […] The next day, vehicle (0.5% MC) po, Compound 1 po; or morphine sc, the positive control, were administered and thermal latency was assessed 1, 3, and 5 hours after dosing.
Data were analyzed by a two-way ANOVA using a Bonferroni Multiple Comparisons test, where *P<0.05 and ****P<0.0001 vs vehicle. […]

κ-opioid receptor [3] = molecular target: T1, κ-opioid receptor; experiment: [35S]GTPγS functional assay, κ-opioid receptor (HEK-293 or CHO cells); type: biochemical; design: made in house; host or cells: HEK-293 or CHO
Method: Membranes from HEK-293 cells, CHO or U-2 OS cells expressing the recombinant human kappa opioid receptor (κ) were prepared by lysing cells in ice cold hypotonic buffer (2.5 mM MgCl2, 50 mM HEPES, pH 7.4) (10 mL/10 cm dish) followed by homogenization with a tissue grinder/Teflon pestle. Membranes were collected by centrifugation at 30,000×g for 15 min at 4° C. and pellets were resuspended in hypotonic buffer to a final concentration of 1-3 mg/mL. Protein concentrations were determined using the BioRad protein assay reagent with bovine serum albumen as standard. Aliquots of κ receptor membranes were stored at −80° C.
Functional [^35S]GTPγS binding assays were conducted as follows. κ opioid receptor membrane solution was prepared by sequentially adding final concentrations of 0.026 μg/μl κ membrane protein (in-house), 10 μg/mL saponin, 3 μM GDP and 0.20 nM [^35S]GTPγS to binding buffer (100 mM NaCl, 10 mM MgCl2, 20 mM HEPES, pH 7.4) on ice. […] Fifty μl/well scintillation cocktail (Perkin Elmer, Shelton, Conn.) was added and plates were counted in a Packard Top-Count for 1 min/well.
(§2) TABLE 3 provides activity response of certain Compounds of the present disclosure to the μ- and κ-opioid receptors that was determined in the above-described functional assays using HEK-293 or CHO cells.

Sprague-Dawley rats [4] = experiment: Conditioned Place Preference (CPP) in rats; type: in vivo, rat; conditions: po in 0.5% MC, day 8, one-way ANOVA
Text: Conditioned Place Preference (CPP) test is a test typically used to measure drug liking.
Male, Sprague-Dawley rats (Harlan, weight 213-240 g) at the beginning of the dosing paradigm were baselined (“BL”) for initial preference (pretest; day 1) using automated conditioning chambers (MedAssociates, Fairfax, Vt.); n=10/group. An unbiased counterbalanced design was used in which rats were randomly assigned to each group with respect to compartment pairings based on weight.
Compound 1 was formulated in 0.5% MC and administered po., while oxycodone, the positive control was dissolved in saline and administered sc.
During the first conditioning session, half of the rats were confined to the black compartment paired with either vehicle (0.5% MC) po, oxycodone sc, or Compound 1 po administration, while the other half were placed in white compartment with similar pairings.
Rats were conditioned on alternate days for 6 total sessions (3 vehicle/3 oxycodone or Compound 1). Control rats received vehicle at each conditioning session. […]
Conditioned Place Preference (CPP) was determined on day 8, and is represented as the difference between the time (seconds) the rat spent in the drug-paired and vehicle-paired compartments. Data are represented as the means±S.E.M., and were analyzed by a one-way ANOVA where *P<0.05 vs vehicle.

μ-opioid receptor [5] = molecular target: T2, μ-opioid receptor (Homo sapiens, UniProt P35372); experiment: β-Arr2 activity response in U2OS cells, μ-opioid receptor; type: cell-based
T2 sequence (P35372 whole entry, species assumed): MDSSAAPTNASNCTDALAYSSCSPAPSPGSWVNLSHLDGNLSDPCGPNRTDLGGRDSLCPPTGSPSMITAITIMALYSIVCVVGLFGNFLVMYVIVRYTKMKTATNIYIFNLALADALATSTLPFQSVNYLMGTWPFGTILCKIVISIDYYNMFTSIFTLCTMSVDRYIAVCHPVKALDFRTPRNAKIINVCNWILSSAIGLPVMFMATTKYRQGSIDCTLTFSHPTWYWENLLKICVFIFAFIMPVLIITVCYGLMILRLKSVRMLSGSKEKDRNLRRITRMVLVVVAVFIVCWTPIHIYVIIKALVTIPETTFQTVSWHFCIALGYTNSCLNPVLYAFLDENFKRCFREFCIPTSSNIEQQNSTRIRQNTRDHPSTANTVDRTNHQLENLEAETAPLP
Method: as §1

μ-opioid receptor [6] = molecular target: T2, μ-opioid receptor; experiment: [35S]GTPγS functional assay, μ-opioid receptor (HEK-293 or CHO cells); type: biochemical; design: made in house; host or cells: HEK-293 or CHO
Method: [^35S]GTPγS functional assays were conducted using freshly thawed μ-receptor membranes prepared in-house from a cell line expressing recombinant μ opioid receptor in a HEK-293, CHO or U-2 OS cell background, or purchased from a commercial source (Perkin Elmer, Shelton, Conn.; or DiscovRx, Fremont, Calif.). Assay reactions were prepared by sequentially adding the following reagents to binding buffer (100 mM NaCl, 10 mM MgCl2, 20 mM HEPES, pH 7.4) on ice (final concentrations indicated): membrane protein (0.026 mg/mL), saponin ([…]), GDP ([…]) and [^35S]GTPγS (0.20 nM; Perkin Elmer, Shelton, Conn.). The prepared membrane solution (190 μl/well) was transferred to 96-shallow well polypropylene plates containing 10 μl of 20× concentrated stock solutions of the agonist [D-Ala^2, N-methyl-Phe^4 Gly-ol^5]-enkephalin (DAMGO) prepared in dimethyl sulfoxide (DMSO). Plates were incubated for 30 min at about 25° C. with shaking. […] BetaScint scintillation cocktail (Perkin Elmer, Shelton, Conn.) was added (50 μl/well) and plates were counted using a Packard Top-Count for 1 min/well. Data were analyzed using the sigmoidal dose-response curve fitting functions in GraphPad PRISM v. […]
as §2

T1 sequence (P41145 whole entry): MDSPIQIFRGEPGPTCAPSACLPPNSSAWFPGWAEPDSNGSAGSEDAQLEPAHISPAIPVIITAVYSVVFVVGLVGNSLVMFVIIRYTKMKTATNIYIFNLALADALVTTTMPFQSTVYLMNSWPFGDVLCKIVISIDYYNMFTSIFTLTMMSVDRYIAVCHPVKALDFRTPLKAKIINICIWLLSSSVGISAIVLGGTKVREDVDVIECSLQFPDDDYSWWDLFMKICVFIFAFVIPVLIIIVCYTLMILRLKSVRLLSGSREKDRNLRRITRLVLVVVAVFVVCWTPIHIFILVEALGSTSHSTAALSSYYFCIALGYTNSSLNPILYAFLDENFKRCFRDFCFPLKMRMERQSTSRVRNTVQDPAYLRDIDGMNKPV

CN1CC[C@]23CCCC[C@@]2(O)[C@H]1Cc1ccc(C(N)=O)cc13 [Compound 1, (4bS,8aS,9R)-8a-hydroxy-11-methyl-6,7,8,8a,9,10-hexahydro-5H-9,4b-(epiminoethano)phenanthrene-3-carboxamide]
EC50 (κ-opioid receptor [1]): > 20000 nM
Emax (κ-opioid receptor [1]; U2OS cells): -0.83 ± 0.17%
appearance of animals (sedation) in hot plate study (Sprague-Dawley rats [2]; 30-75 mg/kg po): appeared to be sedate
EC50 (κ-opioid receptor [3]): 620 ± 91.1 nM
Emax (κ-opioid receptor [3]; HEK-293 or CHO cells, relative to U69,593, read-out: GTPγD κ Emax): 14.9 ± 0.63%
Conditioned Place Preference compared to the vehicle group (Sprague-Dawley rats [4]): not statistically significant
EC50 (μ-opioid receptor [5]): 36.7 ± 5.4 nM
Emax (μ-opioid receptor [5]; U2OS cells): 8.58 ± 0.3%
EC50 (μ-opioid receptor [6]): 44.2 ± 11.9 nM
Emax (μ-opioid receptor [6]; HEK-293 or CHO cells, relative to DAMGO, read-out: GTPγD μ Emax): 50.5 ± 0.95%

CN1CC[C@]23c4c5ccc(O)c4O[C@H]2[C@@H](O)C=C[C@H]3[C@H]1C5 [morphine, reference compound]
appearance of animals (sedation) in hot plate study (Sprague-Dawley rats [2]; sc, positive control): appeared to be sedate
